Tests used:
[1] = target: T1, recombinant hTAP1 (human tocopherol associated protein 1, hSEC14L2) (Homo sapiens, UniProt O76054); assay: isoelectric point mobility shift competition with phosphatidylinositol; format: binding; set-up: gene SEC14L2; N-terminal His tag, expressed in and purified from Escherichia coli; details: read-out: 50% displacement of PI
[2] = target: T2, recombinant PI3Kγ/p110γ (phosphatidylinositol-3-kinase gamma) (Homo sapiens, UniProt P48736); assay: [γ-32P]-ATP phosphatidylinositol kinase assay, TLC; format: biochemical; details: stimulator; no hTAP1; phosphatidylinositol 100 µM, ATP 20 µM, 4 mM MgCl2, pH 7.4, 37 °C
T2 construct: gene PIK3CG; no regulatory subunit mentioned

[3] = target: T1, recombinant hTAP1 (human tocopherol associated protein 1, hSEC14L2); set-up: gene SEC14L2; details: competitor of phosphatidylinositol; native isoelectric focusing gel
[4] = target: recombinant phosphatidylinositol-3-kinase gamma PI3Kγ/p110γ (UniProt P48736)
Sequence of recombinant phosphatidylinositol-3-kinase gamma PI3Kγ/p110γ (P48736 whole entry): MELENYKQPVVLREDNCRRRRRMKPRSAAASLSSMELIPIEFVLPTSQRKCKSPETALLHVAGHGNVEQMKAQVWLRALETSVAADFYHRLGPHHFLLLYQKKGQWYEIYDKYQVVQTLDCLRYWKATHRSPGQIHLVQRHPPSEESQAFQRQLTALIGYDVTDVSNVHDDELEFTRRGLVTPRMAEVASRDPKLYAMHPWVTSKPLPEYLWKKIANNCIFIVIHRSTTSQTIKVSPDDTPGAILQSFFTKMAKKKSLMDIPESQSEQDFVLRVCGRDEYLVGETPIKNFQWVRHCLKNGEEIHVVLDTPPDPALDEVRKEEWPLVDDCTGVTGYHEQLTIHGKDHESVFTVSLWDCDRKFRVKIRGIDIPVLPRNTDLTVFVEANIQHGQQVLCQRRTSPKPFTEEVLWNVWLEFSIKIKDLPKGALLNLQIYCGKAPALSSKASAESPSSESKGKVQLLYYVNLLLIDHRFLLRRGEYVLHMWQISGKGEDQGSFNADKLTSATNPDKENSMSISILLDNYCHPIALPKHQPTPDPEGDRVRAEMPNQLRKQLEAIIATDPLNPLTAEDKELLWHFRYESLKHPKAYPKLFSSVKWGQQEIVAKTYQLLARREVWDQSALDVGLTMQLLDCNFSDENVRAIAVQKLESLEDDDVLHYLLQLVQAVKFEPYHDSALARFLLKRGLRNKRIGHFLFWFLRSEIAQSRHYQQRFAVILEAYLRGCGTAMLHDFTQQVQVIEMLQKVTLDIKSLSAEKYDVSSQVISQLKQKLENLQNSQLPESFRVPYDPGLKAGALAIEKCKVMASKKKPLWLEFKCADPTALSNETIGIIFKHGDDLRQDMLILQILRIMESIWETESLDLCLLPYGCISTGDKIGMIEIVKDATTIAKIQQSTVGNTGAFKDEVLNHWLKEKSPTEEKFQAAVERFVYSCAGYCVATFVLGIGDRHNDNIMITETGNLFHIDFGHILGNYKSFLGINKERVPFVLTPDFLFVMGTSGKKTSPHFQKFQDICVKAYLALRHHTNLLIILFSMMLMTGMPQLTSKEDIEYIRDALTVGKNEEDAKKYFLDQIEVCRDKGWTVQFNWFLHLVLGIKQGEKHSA

T2 sequence (P48736 whole entry): as above
T1 sequence (O76054 whole entry): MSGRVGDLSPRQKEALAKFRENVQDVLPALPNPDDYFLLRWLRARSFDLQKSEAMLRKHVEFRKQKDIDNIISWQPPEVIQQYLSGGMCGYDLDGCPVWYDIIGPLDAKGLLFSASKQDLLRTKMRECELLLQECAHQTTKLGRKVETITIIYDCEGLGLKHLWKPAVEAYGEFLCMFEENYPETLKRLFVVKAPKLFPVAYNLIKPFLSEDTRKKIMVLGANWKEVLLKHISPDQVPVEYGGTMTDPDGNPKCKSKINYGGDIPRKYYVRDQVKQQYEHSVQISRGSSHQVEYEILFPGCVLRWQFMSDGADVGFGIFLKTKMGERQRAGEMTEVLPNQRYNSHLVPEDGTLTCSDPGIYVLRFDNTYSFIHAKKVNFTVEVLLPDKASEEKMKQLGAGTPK
Sequence of recombinant human tocopherol associated protein 1 (O76054 whole entry): as above

Compound	% of control activity at 50 μM [2]	other results
Cc1c(C)c2c(c(C)c1O)CC[C@@](C)(CCC[C@H](C)CCC[C@H](C)CCCC(C)C)O2 [RRR-α-tocopherol]	All four tocopherols stimulated PI3Kγ activity with similar efficiency (Figure 4A)	IC50 [1]: 50 µM
Cc1cc(O)c(C)c2c1O[C@](C)(CCC[C@H](C)CCC[C@H](C)CCCC(C)C)CC2 [RRR-β-tocopherol]	All four tocopherols stimulated PI3Kγ activity with similar efficiency (Figure 4A)	
Cc1c(O)cc2c(c1C)O[C@](C)(CCC[C@H](C)CCC[C@H](C)CCCC(C)C)CC2 [RRR-γ-tocopherol]	All four tocopherols stimulated PI3Kγ activity with similar efficiency (Figure 4A)	
Cc1cc(O)cc2c1O[C@](C)(CCC[C@H](C)CCC[C@H](C)CCCC(C)C)CC2 [RRR-δ-tocopherol]	All four tocopherols stimulated PI3Kγ activity with similar efficiency (Figure 4A)	
Cc1c(C)c2c(c(C)c1OP(=O)(O)O)CC[C@@](C)(CCC[C@H](C)CCC[C@H](C)CCCC(C)C)O2 [α-tocopheryl phosphate]	αTP stimulated PI3Kγ stronger than αT (Figure 4B)	isoelectric point mobility shift competition with phosphatidylinositol [3]: the competition with αTP was slightly weaker (Figure 3B)
recombinant human tocopherol associated protein 1 (from UniProt O76054 1-403) (natural protein)		in vitro PI3Kγ activity (phosphorylation of phosphatidylinositol with [γ-32P]-ATP, TLC) in the presence of recombinant hTAP1, relative to the control without hTAP1 [4]: 38%
